According to patent US12729377B2, “RNAi agents and compositions for inhibiting expression of angiopoietin-like 3 (ANGPTL3), and methods of use” (Arrowhead Pharmaceuticals, Inc., priority 2017, dated 2026):
In the oligonucleotide strings, read from the 5' end, every base follows the letter of its sugar. An asterisk marks phosphorothioate; unmarked linkages are phosphodiester. Other units and linkages are bracketed, terminal groups are in braces. A string of capitals states the bases alone. {NAG37} = tridentate N-acetyl-galactosamine targeting ligand, structure (NAG37)s; [invAb] = inverted abasic unit; m = 2'-O-methyl; f = 2'-fluoro

What was measured:
[1] = system: ANGPTL3 gene; assay: Example 7: serum total cholesterol in mice; assay type: in vivo, C57bl/6 mice; set-up: key: ratio: (level/pre-treatment day -1 level) ÷ mean of D5W control group
Method in brief: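 Female C57bl/6 mice (6–8 weeks, n=3) received a single subcutaneous dose of 0.5 mg/kg GalNAc-conjugated RNAi agent or D5W vehicle. Serum was taken after a 4 h fast at day −1 and days 8, 15, 22 and 29. ANGPTL3 was measured by ELISA and lipids by clinical analyzer, each normalised to the animal's pre-dose level and then to the D5W group mean.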

[2] = system: ANGPTL3 gene; assay: Example 3: serum HDL in mice; assay type: in vivo
Procedure: (§1) To assess the in vivo activity of ANGPTL3 RNAi agents that are designed to target positions 921 and 922 on the ANGPTL3 gene, six- to eight-week-old female C57bl/6 mice were used. Pre-dose serum samples were taken at day −1 after a four hour fast. At day 1, each mouse was given a single subcutaneous administration of 200 μl containing either 1 mg/kg (mpk) of an ANGPTL3 RNAi agent in D5W (dextrose in 5% water), or control (D5W) with no RNAi agent, according to the dosing groups recited in Table 12.
(§2) Each of the RNAi agents included a modified sequence and an N-acetyl-galactosamine-containing targeting ligand conjugated to the 5′ terminal end of the sense strand. (See Tables 3, 4, and 5 for modified sequences and targeting ligand structures). The injections were performed between the skin and muscle (i.e. subcutaneous injections) into the loose skin over the neck and shoulder area. Three (3) mice in each group were tested (n=3). […] Mice were fasted for four hours prior to each collection. ANGPTL3 protein levels in serum were measured by ELISA assay (R&D Systems), according to the manufacturer's recommendations. Triglycerides, high-density lipoprotein (HDL), and total cholesterol in serum were measured on a Cobas® Integra 400 (Roche Diagnostics), according to the manufacturer's recommendations.
(§3) The ANGPTL3 protein levels, triglyceride levels, HDL levels, and total cholesterol levels for each animal were normalized. For normalization, the level of ANGPTL3 protein, triglyceride, HDL, and total cholesterol, respectively, for each animal at a time point, was divided by the pre-treatment level of expression in that animal (in this case at day −1) to determine the ratio of expression “normalized to pre-treatment.” Expression at a specific time point was then normalized to the D5W control group by dividing the “normalized to pre-treatment” ratio for an individual animal by the mean “normalized to pretreatment” ratio of all mice in the D5W control group.

[3] = system: ANGPTL3 protein; assay: Example 3: serum ANGPTL3 protein by ELISA in mice; assay type: in vivo, C57bl/6 mice; settings: 1.0 mg/kg single subcutaneous dose on day 1, serum, female C57bl/6 mice
Procedure: as §1, §2, §3

[4] = system: ANGPTL3 gene; assay: Example 4: serum LDL in mice; assay type: in vivo, C57bl/6 mice; settings: 1.0 mg/kg single SC injection on day 1, serum, n=3
Procedure: as §1, with “target additional” for “target”, “positions” for “positions 921 and 922”, “(mpk) or 0.5 mg/kg (mpk)” for “(mpk)”, “17.” for “12.”
(§4) Each of the RNAi agents included a modified sequence and an N-acetyl-galactosamine-containing targeting ligand conjugated to the 5′ terminal end of the sense strand. (See Tables 3, 4, and 5 for modified sequences and targeting ligand structures). The injections were performed between the skin and muscle (i.e. subcutaneous injections) into the loose skin over the neck and shoulder area. Three (3) mice in each group were tested (n=3). Serum was collected on days 8, 15, 22, 29, and day 43 (Groups 1-3, 9, and 11-13 only). Mice were fasted for four hours prior to each collection. ANGPTL3 protein levels in serum were measured by ELISA assay (R&D Systems), according to the manufacturer's recommendations. Triglycerides, high-density lipoprotein (HDL), and total cholesterol in serum were measured on a Cobas® Integra 400 (Roche Diagnostics), according to the manufacturer's recommendations.
as §3

[5] = system: ANGPTL3 protein; assay: Example 4: serum ANGPTL3 protein by ELISA in mice; assay type: in vivo, C57bl/6 mice; settings: 1.0 mg/kg single subcutaneous dose on day 1, serum, female C57bl/6 mice
Procedure: as §1, with “target additional” for “target”, “positions” for “positions 921 and 922”, “(mpk) or 0.5 mg/kg (mpk)” for “(mpk)”, “17.” for “12.”
as §4, §3

In the case of “AD05418: RNAi agent duplex: antisense AM07159-AS, sense AM07158-SS (antisense mU*fU*mU*fGmAfAmUfUmAfAmUfGmUfCmCfAmUfGmGfG*mU; sense {NAG37}*[invAb]*mAmCmCmCmAmUmGmGfAfCfAmUmUmAmAmUmUmCmAmAmA*[invAb])”, the “Avg Total Chol, normalized to pre-treatment and control” value (from here on “Avg Total Chol, normalized”) ([1]; Day 8, 0.5 mg/kg single SC injection on day 1, n=3) is reported as 0.950, the “Avg Total Chol, normalized” value ([1]; Day 15, 0.5 mg/kg single SC injection on day 1, n=3) is reported as 0.878 and the “Avg Total Chol, normalized” value ([1]; Day 22, 0.5 mg/kg single SC injection on day 1, n=3) is reported as 0.926. The “Avg Total Chol, normalized” value ([1]; Day 29, 0.5 mg/kg single SC injection on day 1, n=3) was 1.023, the “Avg HDL (Average HDL Normalized to Pre-Treatment and Control)” value ([2]; Day 8, 1.0 mg/kg single subcutaneous dose on day 1, female C57bl/6 mice) was 0.766 and the “Avg HDL (Average HDL Normalized to Pre-Treatment and Control)” value ([2]; Day 15, 1.0 mg/kg single subcutaneous dose on day 1, female C57bl/6 mice) was 0.823. For the same substance, the “Avg HDL (Average HDL Normalized to Pre-Treatment and Control)” value ([2]; Day 22, 1.0 mg/kg single subcutaneous dose on day 1, female C57bl/6 mice) was 0.910, the “Avg HDL (Average HDL Normalized to Pre-Treatment and Control)” value ([2]; Day 29, 1.0 mg/kg single subcutaneous dose on day 1, female C57bl/6 mice) was 0.916 and the “Avg ANGPTL3 (Average ANGPTL3 Protein Normalized to Pre-Treatment and Control)” value ([3]; Day 8) was 0.236. For the same substance, the “Avg ANGPTL3 (Average ANGPTL3 Protein Normalized to Pre-Treatment and Control)” value ([3]; Day 15) was 0.290, the “Avg ANGPTL3 (Average ANGPTL3 Protein Normalized to Pre-Treatment and Control)” value ([3]; Day 22) was 0.394 and the “Avg ANGPTL3 (Average ANGPTL3 Protein Normalized to Pre-Treatment and Control)” value ([3]; Day 29) was 0.517. The “Avg LDL, normalized to pre-treatment and control” value (shortened to “Avg LDL, normalized”) ([4]; Day 8) was 1.044, the “Avg LDL, normalized” value ([4]; Day 15) was 0.841 and the “Avg LDL, normalized” value ([4]; Day 22) was 1.142. For the same substance, the “Avg LDL, normalized” value ([4]; Day 29) was 0.966, the “Avg LDL, normalized” value ([4]; Day 43) was 0.921 and the “Avg ANGPTL3 (Average ANGPTL3 Protein Normalized to Pre-Treatment and Control)” value ([5]; Day 8) was 0.258. For the same substance, the “Avg ANGPTL3 (Average ANGPTL3 Protein Normalized to Pre-Treatment and Control)” value ([5]; Day 15) was 0.270, the “Avg ANGPTL3 (Average ANGPTL3 Protein Normalized to Pre-Treatment and Control)” value ([5]; Day 22) was 0.387 and the “Avg ANGPTL3 (Average ANGPTL3 Protein Normalized to Pre-Treatment and Control)” value ([5]; Day 29) was 0.407. For the same substance, the “Avg ANGPTL3 (Average ANGPTL3 Protein Normalized to Pre-Treatment and Control)” value ([5]; Day 43) was 0.847.
